Assay results: patent publication US20260083865A1, “PROSTATE SPECIFIC MEMBRANE ANTIGEN (PSMA) LIGANDS AND USE THEREOF” (priority 2022, published 2026)
Read-outs that look alike come from different tables or passages of the source. Each block holds one compound with its values, some of them ahead of it. Numbered stars: 1 amine (or outer) side, 2 acyl side, 3 side chain; on linkers, the order of the positions; unused ones are H or OH. Bridge positions count the residues as written; N and C are the ends. Square brackets hold non-standard residues; d marks the D form. Peptide text beside a SMILES is read from it. * marks the point of attachment. X17 = N=c1ccc2c(-c3ccc(C(=O)NCCC(=O)N4Cc5ccccc5-c5c(nnn5CCCCCC(=O)NCCCOCCOCCOCCCNC(=O)CCC(=O)NCCCOCCOCCOCCCN*)-c5ccccc54)cc3C(=O)O)c3ccc(N)c(S(=O)(=O)O)c3oc-2c1S(=O)(=O)O; X3 = O=C(O)CN1CCN(CC(=O)O)CCN(CC(=O)NCCCOCCOCCOCCCN*)CCN(CC(=O)O)CC1; X18 = O=C(O)c1cccc(CN2CCOCCOCCN(Cc3cc(N*)cc(C(=O)O)n3)CCOCCOCC2)n1; Phe(4-Cl) = N[C@@H](Cc1ccc(Cl)cc1)C(=O)O; Arg(Me) = CNC(=N)NCCC[C@H](N)C(=O)O; Glutaryl = O=C(CCCC(=O)[*:2])[*:1]; X1 = O=C(CC1CCN([*:1])CC1)[*:2]; Cit = NC(=O)NCCC[C@H](N)C(=O)O; Lys(Me) = CNCCCC[C@H](N)C(=O)O; Suc = O=C(CCC(=O)[*:2])[*:1]; Tle = CC(C)(C)[C@H](N)C(=O)O; Aib = CC(C)(N)C(=O)O

Columns and labels:
[1] = molecular target: T1, Fc-fusion protein of human PSMA (hPSMA-Fc) (Homo sapiens, UniProt Q04609); test: Surface plasmon resonance assay (Biacore T200, single cycle kinetic); type: binding; details: hPSMA-Fc, 25° C., read-out: pKD CAT (converted)
T1 construct: purchased Acro Biosystems PSA-H5264
T1 sequence (Q04609 44-750 limits assumed): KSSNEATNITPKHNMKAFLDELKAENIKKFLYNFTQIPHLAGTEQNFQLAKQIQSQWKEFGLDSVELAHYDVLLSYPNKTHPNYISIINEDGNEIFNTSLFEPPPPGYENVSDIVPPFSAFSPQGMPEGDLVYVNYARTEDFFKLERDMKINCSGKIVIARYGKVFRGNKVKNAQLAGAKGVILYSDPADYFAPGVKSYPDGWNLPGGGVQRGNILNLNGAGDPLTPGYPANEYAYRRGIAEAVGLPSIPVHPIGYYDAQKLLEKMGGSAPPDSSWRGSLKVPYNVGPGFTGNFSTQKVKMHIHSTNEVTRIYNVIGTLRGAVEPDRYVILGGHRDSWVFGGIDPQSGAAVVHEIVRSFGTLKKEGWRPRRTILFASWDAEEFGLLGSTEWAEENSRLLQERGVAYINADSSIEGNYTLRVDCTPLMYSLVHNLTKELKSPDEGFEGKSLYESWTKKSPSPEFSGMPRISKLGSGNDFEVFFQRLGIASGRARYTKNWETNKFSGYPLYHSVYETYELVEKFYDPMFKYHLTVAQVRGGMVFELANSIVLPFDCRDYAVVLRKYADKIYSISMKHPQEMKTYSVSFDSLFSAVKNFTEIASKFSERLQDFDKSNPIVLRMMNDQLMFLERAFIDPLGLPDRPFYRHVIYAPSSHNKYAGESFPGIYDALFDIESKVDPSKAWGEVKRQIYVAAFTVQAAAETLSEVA
Method: Surface plasmon resonance (SPR) studies were performed using a Biacore™ T200 SPR system. Briefly, polarized light is directed towards a gold-labeled sensor surface, and minimum intensity reflected light is detected. The angle of reflected light changes as molecules bind and dissociate.
Fc-fusion protein of human PSMA (hPSMA-Fc, Acro Biosystems, Cat #PSA-H5264) was captured on a Fc-capture chip (Biacore™ CM5 sensor chip coated with ˜300 RU of an Fc-binding peptide). hPSMA-Fc was diluted in Running Buffer (HBST, 0.1% DMSO) to a final concentration of 100 nM and then flushed over the Fc-capture chip to immobilized ˜1000 RUs.
Stock solutions of test compounds were prepared by dissolving each compound in DMSO. DMSO stock solution were diluted 1:1000 in Running Buffer without DMSO. Further sequential dilutions were made with Running Buffer containing 0.1% DMSO. SPR binding analyses were performed in Single Cycle Kinetic (SCK) mode at 25° C. Flow cell coated with the Fc-binding peptide only served as reference flowcell. After each SCK run, hPSMA-Fc was removed with 10 mM glycine buffer, pH 1.5.
In between every three SCK measurements, a blank run with Running Buffer instead of test compound was included to correct for baseline drifts (double blanking method).
Table 5 describes the protocol steps for Fc-fusion target capturing and assessment of the binding kinetics.
For each test compound, SPR raw data in the form of resonance units (RU) were plotted as sensorgrams using the Biacore™ T200 control software. The signal from the blank sensorgram was subtracted from that of the test compound sensorgram (blank corrected). The blank corrected sensorgram was corrected for baseline drift by subtracting the sensorgram of a SCK run without the test compound (running buffer only). The dissociation constant (KD) was calculated from Blank-normalized SPR data using the 1:1 Langmuir binding model from the Biacore™ Insight Evaluation software. The pKD value (negative decadic logarithm of dissociation constant) was calculated using Microsoft Excel.

[2] = molecular target: T2, PSMA-expressing C4-2 cells (Homo sapiens, UniProt Q04609); test: FACS binding assay (competition with 50 nM PSM-0183); details: C4-2 cells, read-out: pIC50 [C4-2] CAT (converted)
T2 construct: PSMA-expressing C4-2 cells (ATCC, Cat. No. CRL-3314) were cultured in RPMI-1640; host or cells: C4-2 cells
T2 sequence (Q04609 whole entry): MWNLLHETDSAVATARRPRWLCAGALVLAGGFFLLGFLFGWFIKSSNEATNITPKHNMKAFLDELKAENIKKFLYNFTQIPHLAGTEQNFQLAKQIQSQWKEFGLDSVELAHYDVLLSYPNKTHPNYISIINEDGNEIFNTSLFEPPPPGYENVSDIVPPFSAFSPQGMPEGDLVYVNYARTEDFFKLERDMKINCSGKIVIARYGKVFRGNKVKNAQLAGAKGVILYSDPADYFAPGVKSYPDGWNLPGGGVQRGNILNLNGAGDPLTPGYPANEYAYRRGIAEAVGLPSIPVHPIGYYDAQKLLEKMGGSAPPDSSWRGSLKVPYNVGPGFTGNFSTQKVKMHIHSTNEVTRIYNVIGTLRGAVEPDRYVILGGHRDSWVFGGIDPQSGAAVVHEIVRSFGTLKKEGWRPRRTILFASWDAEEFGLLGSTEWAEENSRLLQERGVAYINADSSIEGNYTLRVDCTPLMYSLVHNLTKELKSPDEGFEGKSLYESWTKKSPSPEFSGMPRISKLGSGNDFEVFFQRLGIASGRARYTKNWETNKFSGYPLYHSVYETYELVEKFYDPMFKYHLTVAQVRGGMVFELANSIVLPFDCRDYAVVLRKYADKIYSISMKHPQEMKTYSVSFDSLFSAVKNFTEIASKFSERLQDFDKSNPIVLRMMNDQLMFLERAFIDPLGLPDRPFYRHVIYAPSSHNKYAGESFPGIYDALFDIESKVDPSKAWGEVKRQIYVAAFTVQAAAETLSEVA
Method: In order to determine binding of compounds according to the present invention to PSMA-expressing cells, a FACS binding assay was established.
PSMA-expressing C4-2 cells (ATCC, Cat. No. CRL-3314) were cultured in RPMI-1640 (Pan Biotech, Cat. No. P04-18050) including 10% fetal calf serum (Biochrom) and 100 U/ml penicillin and 100 μg/mL streptomycin (Sigma, Cat. No. P0781). Cells were detached with Accutase (Biolegend, Cat. No. BLD-423201) and washed in FACS buffer (PBS (Sigma, Cat. No. D8537) including 1% fetal calf serum). Cells were diluted in FACS buffer to a final concentration of 500,000 cells per mL. 200 μL of the cell suspension were transferred to a u-shaped non-binding 96-well plate (Greiner Bio-One, Cat. No. 650901) and cells were washed in ice-cold FACS buffer.
For IC50 determination, C4-2 cells were incubated with 50 nM PSM-0183 (Ac-Thr-Aib-Phe[Cys-Lys-Arg-Aib-Asn-Cys]-Tle-Thr-Asp-Ttds-Ttds-AF488N3K-NH2) in the presence of increasing concentrations of test compounds at 4° C. for 1 hour. After two wash steps with ice-cold FACS buffer, cells were analyzed in an Attune NxT flow cytometer. Median fluorescence intensities (MFI) of the FITC/AF488-channel were calculated by Attune NxT software. MFI values were plotted against peptide concentration and four parameter logistic (4PL) curve fitting and IC50/pIC50 calculations were performed using ActivityBase software (IDBS).

[3] = SPR, single cycle kinetic, category

Kd ([1]; PSMA SPR assay, pKD category): < 12.6 nM
Structure (SMILES): C[C@@H](O)[C@H](NC(=O)CCC(=O)NCCCOCCOCCOCCCNC(=O)CCC(=O)NCCCOCCOCCOCCCNC(=O)CCCCCn1nnc2c1-c1ccccc1CN(C(=O)CCNC(=O)c1ccc(-c3c4ccc(=N)c(S(=O)(=O)O)c-4oc4c(S(=O)(=O)O)c(N)ccc34)c(C(=O)O)c1)c1ccccc1-2)C(=O)NC(C)(C)C(=O)N[C@@H](Cc1ccccc1)C(=O)N[C@H]1CSSC[C@@H](C(=O)N[C@H](C(=O)N[C@H](C(=O)N[C@@H](CC(=O)O)C(N)=O)[C@@H](C)O)C(C)(C)C)NC(=O)[C@H](CC(N)=O)NC(=O)C(C)(C)NC(=O)[C@H](CCCNC(=N)N)NC(=O)[C@H](CCCCN)NC1=O [PSM-0272, AF488Ahx-Ttds-Ttds-Thr-Aib-Phe-[Cys-Lys-Arg-Aib-Asn-Cys]-Tle-Thr-Asp-NH2] ({X17-Suc}-T[Aib]FCKR[Aib]NC[Tle]TD-NH2; disulfide 4-9)

IC50 ([2]; FACS binding, competition with 50 nM PSM-0183, category): 200 to 1260 nM
Structure (SMILES): CC(C)C[C@H](NC(=O)[C@@H]1CSSC[C@H](NC(=O)[C@H](Cc2ccccc2)NC(=O)[C@H](C)NC(=O)[C@@H](NC(=O)CCC(=O)NCCCOCCOCCOCCCNC(=O)CN2CCN(CC(=O)O)CCN(CC(=O)O)CCN(CC(=O)O)CC2)[C@@H](C)O)C(=O)N[C@@H](CCCCN)C(=O)N[C@@H](CCCNC(=N)N)C(=O)N[C@@H](C)C(=O)N[C@@H](CC(N)=O)C(=O)N1)C(=O)N[C@H](C(=O)N[C@@H](CC(=O)O)C(N)=O)[C@@H](C)O [PSM-0251, DOTA-Ttds-Thr-Ala-Phe-[Cys-Lys-Arg-Ala-Asn-Cys]-Leu-Thr-Asp-NH2] ({X3-Suc}-TAFCKRANCLTD-NH2; disulfide 4-9)

IC50 ([2]; pIC50 category of FACS binding): < 200 nM
Structure (SMILES): CNCCCC[C@@H]1NC(=O)[C@@H](NC(=O)[C@H](Cc2ccc(Cl)cc2)NC(=O)C(C)(C)NC(=O)[C@@H](NC(=O)CC2CCN(C(=O)CCCC(=O)Nc3cc(CN4CCOCCOCCN(Cc5cccc(C(=O)O)n5)CCOCCOCC4)nc(C(=O)O)c3)CC2)[C@@H](C)O)CSSC[C@@H](C(=O)N[C@H](C(=O)N[C@H](C(N)=O)[C@@H](C)O)C(C)(C)C)NC(=O)[C@H](CC(N)=O)NC(=O)C(C)(C)NC(=O)[C@H](CCCNC(=N)NC)NC1=O [PSM-0515, Macropa-Cmp-Thr-Aib-Pcf-[Cys-Lys(Me)-Arg(Me)-Aib-Asn-Cys]-Tle-Thr-NH2] ({X18-Glutaryl}-[X1]T[Aib][Phe(4-Cl)]C[Lys(Me)][Arg(Me)][Aib]NC[Tle]T-NH2; disulfide 5-10)

Kd [1, 3]: < 12.6 nM
Structure (SMILES): CC(=O)N[C@H](C(=O)NC(C)(C)C(=O)N[C@@H](Cc1ccccc1)C(=O)N[C@H]1CSSC[C@@H](C(=O)N[C@H](C(=O)N[C@H](C(=O)N[C@@H](CC(=O)O)C(=O)NCCCOCCOCCOCCCNC(=O)CCC(=O)NCCCOCCOCCOCCCNC(=O)CCC(=O)N[C@H](CCCCn2nnc3c2-c2ccccc2CN(C(=O)CCNC(=O)c2ccc(-c4c5ccc(=N)c(S(=O)(=O)O)c-5oc5c(S(=O)(=O)O)c(N)ccc45)c(C(=O)O)c2)c2ccccc2-3)C(N)=O)[C@@H](C)O)C(C)(C)C)NC(=O)[C@H](CC(N)=O)NC(=O)C(C)(C)NC(=O)[C@H](CCCNC(=N)N)NC(=O)[C@H](CCCCN)NC1=O)[C@@H](C)O [PSM-0183, Ac-Thr-Aib-Phe-[Cys-Lys-Arg-Aib-Asn-Cys]-Tle-Thr-Asp-Ttds-Ttds-AF488N3K-NH2]

Kd [1, 3]: < 12.6 nM
Structure (SMILES): CSCC[C@@H]1NC(=O)C(C)(C)NC(=O)[C@H](CCCNC(N)=O)NC(=O)[C@H](CCCCN)NC(=O)[C@@H](NC(=O)[C@H](Cc2ccc(Cl)cc2)NC(=O)C(C)(C)NC(=O)[C@@H](NC(C)=O)[C@@H](C)O)CSSC[C@@H](C(=O)N[C@H](C(=O)N[C@H](C(N)=O)[C@@H](C)O)C(C)(C)C)NC1=O [PSM-0229, Ac-Thr-Aib-Pcf-[Cys-Lys-Arg-Aib-Met-Cys]-Tle-Thr-NH2] (Ac-T[Aib][Phe(4-Cl)]CK[Cit][Aib]MC[Tle]T-NH2; disulfide 4-9)
